The values that follow come from PMC5073322, “Novel Natural Product-like Caged Xanthones Bearing a Carbamate Moiety Exhibit Antitumor Potency and Anti-Angiogenesis Activity In vivo” (Scientific Reports, 2016).

The term solubility denotes the dissolved amount per volume that the medium holds.

The subject of one series is HCT116. Nature of the series: MTT antiproliferative assay, HCT116. Conditions: read-out: IC50 HCT116. (Formazan colour is commonly taken as a measure of viable cells.)
For the next series, the system named is MDA-MB-231. Nature of the series: MTT antiproliferative assay, MDA-MB-231. Particulars: Homo sapiens, MDA-MB-231, 72 h.
A further series concerns HepG2. Nature of the series: MTT antiproliferative assay, HepG2. Particulars: read-out: IC50 HepG2.
A further series concerns A549/taxol. Nature of the series: MTT antiproliferative assay, Taxol-resistant A549. The format is cell-based.
Series [1] relates to HepG2, HCT116, MDA-MB-231 and A549 cells. Nature of the series: MTT antiproliferative assay, cell line panel.
Description: (§2) The inhibition of tumour cell growth was measured by a modified tetrazolium (MTT) salt assay, as previously described[39]. Cells were cultured in a 96-well plate and treated with culture medium alone or different concentrations of the compounds. The cells were incubated for 72 h, and then, the MTT assay reagent was added. After a 4 h incubation, the formazan product was quantitated at 570 nm. The IC50 values (the concentrations that gave rise to 50% inhibition of cell viability) were calculated using GraphPad Prism 6 using a variable slope (four parameters).
The next series in a line: Water solubility by HPLC. The class given is physicochemical. Particulars: deionized water, stirred overnight, HPLC 290 nm; for solubility: thermodynamic from solid, read-out: S, water solubility. The text has this: The physicochemical characteristics of compounds directly determine their potential drug-like properties. Assessing a compound’s physicochemical properties before performing in vivo evaluations can guide further studies and minimize the time and cost associated with drug discovery. Therefore, parallel to the in vivo study, these solubilities of these compounds in water were experimentally measured using high-performance liquid chromatography (HPLC). Based on the results of full wave scanning, 290 nm was chosen as the maximum absorption wavelength for HPLC detection.
(§1) A HPLC system with an ultraviolet (UV) detector was used to detect the solubility of the compounds. The optimal wavelength was 290 nm. Ethanol/water (85:15) was an efficient eluent at a flow rate of 0.5 mL/min. The compounds were stirred in deionized water overnight to maximize the retention of the compounds in solution. Then, the solutions were filtered and the supernatant was used as a fluid sample for HPLC detection. The permeability (Pe) of some of the compounds was tested with the help of a standard PAMPA (pION), as previously reported. PAMPA was performed on a PAMPA Explorer instrument (pION, Inc., Woburn, MA) with the PAMPA Explorer command software (Version 3.7.4.1). The compounds were diluted to 10 mM with the system solution buffer (pH 7.4). Then, 150 μL of the diluted compound solution was transferred to a UV plate, and the UV spectrum was collected and used as a reference. Then, paint the membrane with 5 μL of gastrointestinal tract (GIT) lipid. The acceptor chamber was filled with 200 μL of acceptor solution buffer, and the donor chamber was filled with 200 μL of diluted compound solution. The PAMPA sandwich was assembled and left at 25 °C for 4 h. The UV spectra (240–500 nm) from the donor and the acceptor were collected. The permeability coefficient was calculated with the PAMPA Explorer Command software (Version 3.7.4.1) based on the area under the curve (AUC) of the reference plate, the donor plate, and the acceptor plate. The permeability coefficient of the compound was tested for four times, and the data are shown as the average values. Ketoprofen (4.5×10^−6 cm/s) and propranolol (112.8×10^−6 cm/s) were used as the standards in this assay.

The subject of the next series is A549/cisplatin. Nature of the series: MTT antiproliferative assay, cisplatin-resistant A549. Particulars: Homo sapiens. The format is cell-based.
The next series deals with A549. Nature of the series: MTT antiproliferative assay, A549. Conditions: Homo sapiens, A549, 72 h.
Another series has as its system HepG2 tumours. Nature of the series: HepG2 hepatoblastoma xenograft in nude mice. The format is in vivo. Particulars: control groups of the IV study, dose not given. As for the experimental part: Given the in vitro anti-tumour cell activity of 8n, we continued to evaluate its in vivo effect in hepatoblastoma xenograft models using previously reported methods, and the water-soluble anti-cancer drug 5-fluorouracil (5-FU) was used as a positive control. After tumours were established, the mice were IV injected with 2.5, 5, 10 or 50 mg/kg 8n; the lead compound DDO-6101 and antitumour drug 5-FU were used as controls. All mice had normal weights and quality of life in in vivo tests. […] The in vivo activity of 8n was also evaluated after oral administration. […] This observation may be attributed to the improved physicochemical properties of 8n compared to those of DDO-6101, such as aqueous solubility and cell membrane permeability, which were provided by modification with the carbamate moiety.
Figure 7 (A) The tumour diameters were measured and used to calculate the tumour volumes. The HepG2 xenograft-bearing mice were intravenously injected with 2.5, 5, 10 and 50 mg/kg 8n for 20 days. (B) After 20 days, mice were sacrificed and the individual tumours were weighed. *p < 0.05, […]; Student’s t-test (n = 6). (C) The tumour diameters were measured and used to calculate the tumour volumes. The HepG2 xenograft-bearing mice were orally administered 50 mg/kg 8n, 50 mg/kg DDO-6101 or 10 mg/kg 5-FU for 20 days.
All studies were performed in compliance with the relevant guidelines and regulations. Tumours on female nude mice were established by injecting 1×10^7 HepG2 cells on the dorsal surface. After four weeks, tumours of approximately 150 mm^3 were cut into pieces that were 3 mm×3 mm×3 mm in size and were then implanted in the dorsal surface of other female nude mice. One week later, mice implanted with xenografts of 100 mm^3 were selected, randomized, and […] injected with 2.5, 5, or 10-mg/kg 8n or vehicle daily for another three weeks. The tumour dimensions were measured daily with vernier calipers, and the tumour volumes were calculated using the formula: volume = (width)^2 × length/2.

The nature of series [2]: Parallel artificial membrane permeability assay (PAMPA). Particulars: PAMPA, different pH values (Fig. 5). The format is in vitro ADME. As to the method: Permeability is another important property that reflects the ability of molecules to diffuse through cell membranes. The permeability coefficients were determined using a standard parallel artificial membrane permeability assay (PAMPA) on a PAMPA Explorer instrument (Pion, Inc., MA, USA)[34].
as §1, with “The compounds were diluted to 10 mM with the system solution buffer (pH 7.4).” left out
(In PAMPA a lipid-coated filter parts donor from acceptor wells.)

Where [3] appears, read: MTT, 72 h; Taxol-resistant A549; read-out: IC50 A549/taxol.
[4] abbreviates: MTT, 72 h, read-out: IC50 A549/cisplatin.

Values after ≈ are worked out from the molar mass of the structure shown. Read-outs that look alike come from different tables or passages of the source.

Description for A549/cisplatin: as §2
Description for A549/taxol: as §2

Consider `CC(=O)Oc1cccc2c1C(=O)C1=CC3CC4C(C)(C)OC(CC=C(C)C)(C3=O)C14O2` (stereo not shown) [Compound 1], for which the IC50 with HCT116 (Homo sapiens, HCT-116, 72 h) was 1490 ± 170 nM; in the series with MDA-MB-231 (read-out: IC50 MDA-MB-231) it was 970 ± 90 nM; in the series with HepG2 (Homo sapiens, HepG2, 72 h), 1070 ± 90 nM; in the series on A549/taxol (setting [3]), 1620 ± 100 nM; in series [1] (Homo sapiens, read-out: IC50 values, range over the cancer cell lines), 970 to 1490 nM; with A549/cisplatin (setting [4]), 1530 ± 200 nM. Besides, the IC50 in the series with A549 (read-out: IC50 A549) was determined as 3000 ± 800 nM. The solubility in “Water solubility by HPLC” was 20 µM (≈ 8.45 µg/mL).
For `COc1cccc2c1C(=O)C1=CC3CC4C(C)(C)OC(CC=C(C)C)(C3=O)C14O2` (stereo not shown) [Compound 3], the IC50 with HCT116 (Homo sapiens, HCT-116, 72 h) came out at 6100 ± 190 nM; in the series with MDA-MB-231 (read-out: IC50 MDA-MB-231), 1800 ± 60 nM; in the series with HepG2 (Homo sapiens, HepG2, 72 h), 8550 ± 430 nM. In series [1] (three cancer cell lines), the “fold less active than DDO-6101” value is 4–8 fold. Further, the solubility in the series “Water solubility by HPLC” worked out at 10 µM (≈ 3.94 µg/mL).
Take `O=c1[nH]cc(F)c(=O)[nH]1` [Compound 5-FU, 5-fluorouracil, reference compound]: the “inhibition of the tumour volume, control groups” value in the series on HepG2 tumours is recorded as 50.95%.
Consider `CCN(CC)C(=O)Oc1cccc2c1C(=O)C1=CC3CC4C(C)(C)OC(CC=C(C)C)(C3=O)C14O2` (stereo not shown) [Compound 8b], for which the IC50 amounted to 2870 ± 70 nM with HCT116 (Homo sapiens, HCT-116, 72 h); 470 ± 70 nM in the series on MDA-MB-231 (read-out: IC50 MDA-MB-231); 1880 ± 140 nM with HepG2 (Homo sapiens, HepG2, 72 h); 680 ± 80 nM in the series with A549/taxol (setting [3]); 1460 ± 90 nM in the series with A549/cisplatin (setting [4]); 2860 ± 20 nM in the series on A549 (read-out: IC50 A549). In addition, the solubility in “Water solubility by HPLC” is 30 µM (≈ 14.4 µg/mL). Besides, the “permeability relative to DDO-6101 and GA” value in series [2] is given as “improved the permeability”.
`CC(C)=CCC12OC(C)(C)C3CC(C=C4C(=O)c5c(OC(=O)N6CCOCC6)cccc5OC431)C2=O` (stereo not shown) [Compound 8d]: the IC50 in the series with HCT116 (Homo sapiens, HCT-116, 72 h) was 710 ± 40 nM; in the series on MDA-MB-231 (read-out: IC50 MDA-MB-231), 580 ± 40 nM; in the series on HepG2 (Homo sapiens, HepG2, 72 h), 2310 ± 180 nM; in the series on A549/taxol (setting [3]), 530 ± 80 nM; in the series with A549/cisplatin (setting [4]), 1480 ± 250 nM; in the series on A549 (read-out: IC50 A549), 9810 ± 170 nM. The solubility in “Water solubility by HPLC” was 40 µM (≈ 19.7 µg/mL). In addition, the “permeability relative to DDO-6101 and GA” value in series [2] is “improved the permeability”.
Consider `CC(C)=CCC12OC(C)(C)C3CC(C=C4C(=O)c5c(OC(=O)N6CCSC6)cccc5OC431)C2=O` (stereo not shown) [Compound 8i], for which the IC50 is 1080 ± 20 nM in the series with HCT116 (Homo sapiens, HCT-116, 72 h); 1000 ± 100 nM in the series on MDA-MB-231 (read-out: IC50 MDA-MB-231); 1610 ± 180 nM in the series on HepG2 (Homo sapiens, HepG2, 72 h); 820 ± 80 nM in the series on A549/taxol (setting [3]); 1800 ± 100 nM with A549/cisplatin (setting [4]); 3380 ± 20 nM in the series with A549 (read-out: IC50 A549). Besides, the solubility in the series “Water solubility by HPLC” was found to be 20 µM (≈ 9.91 µg/mL). For the same molecule, the “permeability relative to DDO-6101 and GA” value in series [2] is given as “improved the permeability”.
Take `CC(C)=CCC12OC(C)(C)C3CC(C=C4C(=O)c5c(OC(=O)N6CCC(N7CCCCC7)CC6)cccc5OC431)C2=O` (stereo not shown) [Compound 8l]: the IC50 in the series on HCT116 (MTT, 72 h) is 2490 ± 330 nM; in the series with MDA-MB-231 (read-out: IC50 MDA-MB-231, MTT, 72 h), 880 ± 50 nM; in the series with HepG2 (MTT, 72 h) it was 340 ± 270 nM; in the series on A549/taxol (read-out: IC50 A549/taxol; MTT, 72 h; Taxol-resistant A549) it was 610 ± 40 nM; in the series on A549/cisplatin (A549, 72 h, read-out: IC50 A549/cisplatin, MTT, 72 h) it was 980 ± 130 nM; in the series on A549 (read-out: IC50 A549, MTT, 72 h) it was 10000 ± 2100 nM. For the same molecule, the “fold higher activity against the resistant A549 cell line than A549” value in the series on A549/taxol (Taxol-resistant and cisplatin-resistant A549 versus A549) is given as 10–15 fold. In the series “Water solubility by HPLC”, the “S, water solubility” value turned out to be 80 µM. Also, the “permeability relative to DDO-6101 and GA” value in [2] is on record as “improved the permeability”.
For `CC(C)=CCC12OC(C)(C)C3CC(C=C4C(=O)c5c(O)cccc5OC431)C2=O` (stereo not shown) [DDO-6101, reference compound], the IC50 in the series with HCT116 (Homo sapiens, HCT-116, 72 h) stood at 710 ± 100 nM; with MDA-MB-231 (read-out: IC50 MDA-MB-231), 320 ± 90 nM; in the series with HepG2 (Homo sapiens, HepG2, 72 h) it was 1140 ± 90 nM; with A549/taxol (setting [3]), 460 ± 30 nM; in the series with A549/cisplatin (setting [4]), 2110 ± 100 nM; in the series on A549 (read-out: IC50 A549), 2590 ± 170 nM. Further, the solubility in the series “Water solubility by HPLC” was under 5 µM. For the same molecule, the “inhibition of the tumour volume, control groups” value in the series with HepG2 tumours was 36.81%.
